Reference: paper PMC4556830, “The Effect of MGCD0103 on CYP450 Isoforms Activity of Rats by Cocktail Method” (BioMed Research International, 2015)

Test: Pharmacokinetics of six cocktail probe drugs in rat plasma (UPLC-MS/MS) after 7-day MGCD0103 or saline
Settings: for half-life / Cmax: Sprague-Dawley, rat, po; for difference for AUC, t 1/2 between high dosage group and control group: p > 0.05; for Cmax: C max
Experimental: The compounds were analyzed by a UPLC-MS/MS with ACQUITY I-Class UPLC and a XEVO TQD triple quadrupole mass spectrometer that was equipped with an electrospray ionization (ESI) interface (Waters Corp., Milford, MA, USA). The UPLC system included a Sample Manager with Flow-Through Needle (SM-FTN) and a Binary Solvent Manager (BSM). Data acquisition and instrument control were performed on the MassLynx 4.1 software (Waters Corp., Milford, MA, USA).
The initial mobile phase consisted of 0.1% formic acid and acetonitrile with gradient elution at a flow rate of 0.4 mL/min and an injection volume of 2 μL. […] The total run time of the analysis was 3 min.
The mass spectrometric detection was performed in a positive mode. Nitrogen was used as the cone gas (50 L/h) and desolvation gas (1000 L/h). The mass conditions were set as follows: source temperature 150°C, capillary voltage 2.5 kV, and desolvation temperature 500°C.
Forty rats (220 ± 20 g) were randomly divided into four different dosages of MGCD0103 groups (Low group, Medium group, High group, and control group with 10 rats in each group). MGCD0103 was dissolved in corn oil as suspension at three different concentrations (20, 40, and 80 mg/mL). Three different MGCD0103 groups (Low group, Medium group, and High group) were respectively given MGCD0103 20, 40, and 80 mg/kg one time by intragastric administration at every morning and last for 7 days. Control group were given saline by same administration method.
100 μL of plasma was obtained from blood sample after centrifugation at 4000 g for 10 min. In a 1.5 mL centrifuge tube, 200 μL of acetonitrile (containing 50 ng/mL IS) was added into 100 μL of collected plasma sample. […] Then supernatant (2 μL) was injected into the UPLC-MS/MS system for analysis.
Concentration of plasma probe drugs versus time was analyzed by Version 3.0 Data Analysis System (Wenzhou Medical University, China). The main pharmacokinetic parameters of the MGCD0103 group and control group were analyzed by SPSS l8.0 statistical software.

[1] = Control group: saline i.g. 7 days (no MGCD0103), then probe 10 mg/kg (tolbutamide 1 mg/kg) i.g., rat plasma, mean ± SD, n = 10
[2] = High group: MGCD0103 80 mg/kg i.g. 7 days, then probe 10 mg/kg (tolbutamide 1 mg/kg) i.g., rat plasma, mean ± SD, n = 10
[3] = Low group: MGCD0103 20 mg/kg i.g. 7 days, then probe 10 mg/kg (tolbutamide 1 mg/kg) i.g., rat plasma, mean ± SD, n = 10
[4] = Medium group: MGCD0103 40 mg/kg i.g. 7 days, then probe 10 mg/kg (tolbutamide 1 mg/kg) i.g., rat plasma, mean ± SD, n = 10
[5] = high dosage MGCD0103 group vs control
[6] = high dosage MGCD0103 group vs control, p < 0.05

Structure (SMILES) | AUC(0–t) [1] [ng/mL∗h] | AUC(0–∞) [1] [ng/mL∗h] | AUC(0–t) [2] | AUC(0–∞) [2] | AUC(0–t) [3] [ng/mL∗h] | AUC(0–∞) [3] [ng/mL∗h] | AUC(0–t) [4] [ng/mL∗h] | AUC(0–∞) [4] [ng/mL∗h] | half-life (in vivo, t 1/2) [h] | difference for AUC, t 1/2 between high dosage group and control group [5] | Cmax (in vivo, 10 mg/kg) [ng/mL] | half-life (in vivo, 10 mg/kg, t 1/2) [h] | CL [1] [L/h/kg] | CL [2] | CL [3] [L/h/kg] | CL [4] [L/h/kg] | V [1] [L/kg] | V [2] [L/kg] | V [3] [L/kg] | V [4] [L/kg] | also measured
COCCc1ccc(OCC(O)CNC(C)C)cc1 (stereo not shown) [Metoprolol] | 709.2 ± 255.8 | 724.2 ± 255.8 | 1031.8 ± 1261.2 ng/mL∗h | 1046.4 ± 1258.4 ng/mL∗h | 698.1 ± 348.6 | 703.8 ± 351.6 | 836.1 ± 499.8 | 843.7 ± 498.4 | 0.8 ± 0.1 | no significant difference | – | – | – | – | – | – | – | – | – | – | –
CC(NC(C)(C)C)C(=O)c1cccc(Cl)c1 (stereo not shown) [Bupropion] | 144.8 ± 94.1 | 146.7 ± 95.1 | 218.2 ± 460.8 ng/mL∗h | 235.2 ± 502.8 ng/mL∗h | 282.5 ± 403.2 | 324.2 ± 506.3 | 120.4 ± 45.1 | 122.3 ± 45.2 | – | no significant difference | 157 ± 179 | 0.8 ± 0.4 | – | – | – | – | – | – | – | – | –
COc1ccc2[nH]c([S+]([O-])Cc3ncc(C)c(OC)c3C)nc2c1 (stereo not shown) [Omeprazole] | 503.8 ± 199.4 | 528.0 ± 190.0 | 676.8 ± 1111.6 ng/mL∗h | 731.8 ± 1098.8 ng/mL∗h | 700.1 ± 910.2 | 704.9 ± 909.5 | 526.1 ± 251.2 | 539.1 ± 252.5 | – | no significant difference | 556 ± 646 | – | 21.2 ± 7.6 | 31.8 ± 19.0 L/h/kg | 29.1 ± 16.6 | 22.3 ± 10.0 | – | – | – | – | half-life (plasma, 10 mg/kg, t 1/2, Control group: saline i.g. 7 days (no MGCD0103), then probe 10 mg/kg (tolbutamide 1 mg/kg) i.g., rat plasma, mean ± SD, n = 10): 1.4 ± 1 h
CCCCNC(=O)NS(=O)(=O)c1ccc(C)cc1 [Tolbutamide] | 88701.2 ± 19274.8 | 89852.0 ± 19168.1 | 64052.9 ± 15988.6^∗ ng/mL∗h | 64353.2 ± 15998.9^∗ ng/mL∗h | 82724.8 ± 13265.9 | 83176.9 ± 13264.2 | 72448.6 ± 14850.4 | 72761.4 ± 14754.7 | 5.2 ± 1.2 | – | – | – | – | – | – | – | 0.088 ± 0.019 | 0.099 ± 0.020 | 0.090 ± 0.014 | 0.093 ± 0.010 | change of AUC(0–t) versus control group [6]: decreased; change of CL versus control group [6]: increased
CCOc1ccc(NC(C)=O)cc1 [Phenacetin] | 3831.2 ± 2840.9 | 3833.6 ± 2839.3 | 2869.8 ± 3189.9 ng/mL∗h | 2871.9 ± 3189.0 ng/mL∗h | 2973.6 ± 1807.0 | 2975.9 ± 1806.6 | 2910.1 ± 1758.5 | 2918.2 ± 1751.4 | – | no significant difference | 2880 ± 1630 | 0.6 ± 0.4 | – | – | – | – | – | – | – | – | –
C[C@]12CC[C@H]3[C@@H](CCC4=CC(=O)CC[C@@]43C)[C@@H]1CC[C@@H]2O [Testosterone] | 85.9 ± 40.6 | 89.9 ± 43.9 | 490.7 ± 1044.2 ng/mL∗h | 524.5 ± 1042.4 ng/mL∗h | 404.5 ± 908.2 | 417.2 ± 927.8 | 81.3 ± 28.8 | 106.5 ± 45.1 | – | no significant difference | – | – | 143.8 ± 89.6 | 64.9 ± 33.4^∗ L/h/kg | 104.8 ± 49.0 | 109.0 ± 43.8 | 161.1 ± 82.2 | 254.0 ± 291.0 | 259.1 ± 168.6 | 253.2 ± 204.3 | Cmax (in vivo, 10 mg/kg, Control group: saline i.g. 7 days (no MGCD0103), then probe 10 mg/kg (tolbutamide 1 mg/kg) i.g., rat plasma, mean ± SD, n = 10): 88.1 ± 54.2 ng/mL; Cmax (in vivo, 10 mg/kg, High group: MGCD0103 80 mg/kg i.g. 7 days, then probe 10 mg/kg (tolbutamide 1 mg/kg) i.g., rat plasma, mean ± SD, n = 10): 462 ± 1030 ng/mL; Cmax (in vivo, 10 mg/kg, Low group: MGCD0103 20 mg/kg i.g. 7 days, then probe 10 mg/kg (tolbutamide 1 mg/kg) i.g., rat plasma, mean ± SD, n = 10): 302 ± 631 ng/mL; Cmax (in vivo, 10 mg/kg, Medium group: MGCD0103 40 mg/kg i.g. 7 days, then probe 10 mg/kg (tolbutamide 1 mg/kg) i.g., rat plasma, mean ± SD, n = 10): 93.2 ± 75.3 ng/mL; half-life (in vivo, 10 mg/kg, t 1/2, Control group: saline i.g. 7 days (no MGCD0103), then probe 10 mg/kg (tolbutamide 1 mg/kg) i.g., rat plasma, mean ± SD, n = 10): 1 ± 0.6 h; half-life (in vivo, 10 mg/kg, t 1/2, High group: MGCD0103 80 mg/kg i.g. 7 days, then probe 10 mg/kg (tolbutamide 1 mg/kg) i.g., rat plasma, mean ± SD, n = 10): 4 ± 7.1 h; half-life (in vivo, 10 mg/kg, t 1/2, Low group: MGCD0103 20 mg/kg i.g. 7 days, then probe 10 mg/kg (tolbutamide 1 mg/kg) i.g., rat plasma, mean ± SD, n = 10): 1.7 ± 0.8 h; half-life (in vivo, 10 mg/kg, t 1/2, Medium group: MGCD0103 40 mg/kg i.g. 7 days, then probe 10 mg/kg (tolbutamide 1 mg/kg) i.g., rat plasma, mean ± SD, n = 10): 2.2 ± 2.4 h; change of CL versus control group [6]: shortened
